In patent US5827860A, “Peptidyl heterocycles useful in the treatment of thrombin related disorders” (Ortho Pharmaceutical Corporation, priority 1995, dated 1998):

assay: Ex vivo assay for duration of action after i.v. dosing (time to half plasma elimination); settings: male rats, from slope of V0 vs. time of plasma thrombin inhibition
Experimental: An ex vivo assay was conducted to determine the duration of action of the compounds of Formula I. For this i.v. assay male rats (Long Evans, 350-500 g) were implanted with a teflon cannulae via the femoral artery while under anesthesia (pentobarbital i.p., 35 mg/kg). […] The animals were allowed to recover for at least 24 h after the surgical procedure.
The test compound was dispersed in water and delivered to the animal (0.25 mL) via the femoral vein. […] A plasma sample was obtained by centrifuging the blood at 10,000 rpm for 5 min. This sample is analyzed for thrombin inhibition using the chromogenic assay, described below.
Datum was collected over a 30 min period and the initial rate of substrate hydrolysis (V0 (mOD/min)) was calculated with an analysis program (Softmax, Molecular Devices).
The time to half plasma elimination (t 1/2) was calculated from the slope of V0 vs. time, using the following equation: t 1/2=-1.6 slope.

| SMILES | t1/2 (time to half plasma elimination) [min] |
| --- | --- |
| CNC(C(=O)N1CCC[C@H]1C(=O)N[C@@H](CCCNC(=N)N)C(=O)c1nc2ccccc2s1)c1ccccc1 (some centres unmarked) [Compound 34] | 26 |
| CN[C@H](Cc1ccccc1)C(=O)N1CCC[C@H]1C(=O)N[C@@H](CCCNC(=N)N)C(=O)c1nc2ccc(O)cc2s1 [Compound 25] | 14 |

assay: not given; settings: rat, in vivo, iv

| SMILES | t1/2 (time to half plasma elimination) [min] |
| --- | --- |
| CNC(Cc1ccccc1)C(=O)N1CCCC1C(=O)NC(CCCNC(=N)N)C(=O)c1nc2ccccc2[nH]1 (centres unmarked) [Compound 21] | 5 |
| CN[C@H](Cc1ccccc1)C(=O)N1CCC[C@H]1C(=O)N[C@@H](CCCNC(=N)N)C(=O)c1nc2ccc(CO)cc2s1 [Compound 15] | 16 |
| CN[C@H](Cc1ccc(F)cc1)C(=O)N1CCC[C@H]1C(=O)N[C@@H](CCCNC(=N)N)C(=O)c1nc2ccccc2s1 [Compound 32, N-METHYL-D-(4-FLUOROPHENYL)ALANYL-N-[4-[(AMINOIMINOMETHYL)AMINO]-1S-[(BENXOTHIAZOL-2-YL)CARBONYL]BUTYL]-L-PROLINAMIDE] | 19 |
| CN[C@H](Cc1ccccc1)C(=O)N1CCC[C@H]1C(=O)N[C@@H](CCCNC(=N)N)C(=O)c1nc2ccc(C(=O)OC)cc2s1 [Compound 12] | 43 |
| CN[C@H](Cc1ccccc1)C(=O)N1CCC[C@H]1C(=O)N[C@@H](CCCNC(=N)N)C(=O)c1nc2ccc3ccccc3c2s1 [Compound 52] | 5 |
| CNC(C(=O)N1CCCC1C(=O)NC(CCCNC(=N)N)C(=O)c1nc2ccccc2s1)c1ccccc1 [Compound 33, N-METHYL-D-PHENYLGLYCYL-N-[4-[(AMINOIMINOMETHYL)AMINO]-1S-[(BENXOTHIAZOL-2- YL)CARBONYL]BUTYL]-L-PROLINAMIDE] | 18 |
| CN[C@@H](C(=O)N1CCC[C@H]1C(=O)N[C@@H](CCCNC(=N)N)C(=O)c1nc2ccccc2s1)C1CCCCC1 [Compound 37, N-METHYL-D-CYCLOHEXYLGLYCYL-N-[4-[(AMINOIMINOMETHYL)AMINO]-1S-[(BENXOTHIAZOL-2-YL)CARBONYL]BUTYL]-L-PROLINAMIDE] | 42 |
| CN[C@H](Cc1ccccc1)C(=O)N1CCC[C@H]1C(=O)N[C@@H](CCCNC(=N)N)C(=O)c1nc2ccccc2s1 [Compound 1, N-METHYL-D-PHENYLALANYL-N-[4-[(AMINOIMINOMETHYL)AMINO]-1S-[(BENXOTHIAZOL-2- YL)CARBONYL]BUTYL]-L-PROLINAMIDE] | 19 |
| CC(=O)N[C@H](Cc1ccccc1)C(=O)N1CCC[C@H]1C(=O)N[C@@H](CCCNC(=N)N)C(=O)c1nc2ccccc2s1.O=C(O)C(F)(F)F [Compound 35] | 11 |
| CN[C@H](Cc1ccccc1)C(=O)N1CCC[C@H]1C(=O)N[C@@H](CCCNC(=N)N)C(=O)c1nc2ccc(C(=O)O)cc2s1 [Compound 13] | 25 |
| CN[C@H](Cc1ccccc1)C(=O)N1CCC[C@H]1C(=O)N[C@@H](CCCNC(=N)N)C(=O)c1nc(C(=O)O)cs1 [Compound 54] | 15 |
| CN[C@H](Cc1ccccc1)C(=O)N1CCC[C@H]1C(=O)N[C@@H](CCCNC(=N)N)C(=O)c1nc2ccc(F)cc2s1 [Compound 17] | 8 |
| CN[C@H](Cc1ccccc1)C(=O)N1CCC[C@H]1C(=O)N[C@@H](CCCNC(=N)N)C(=O)c1nc2c(s1)CCCC2 [Compound 51] | 17 |
| CN[C@H](CC1CCCCC1)C(=O)N1CCC[C@H]1C(=O)N[C@@H](CCCNC(=N)N)C(=O)c1nc2ccccc2s1 [Compound 29, N-METHYL-D-CYCLOHEXYLALANYL-N-[4-[(AMINOIMINOMETHYL)AMINO]-1S-[(BENXOTHIAZOL-2-YL)CARBONYL]BUTYL]-L-PROLINAMIDE] | 14 |
| CN[C@H](Cc1c(F)c(F)c(F)c(F)c1F)C(=O)N1CCC[C@H]1C(=O)N[C@@H](CCCNC(=N)N)C(=O)c1nc2ccccc2s1 [Compound 30] | 6 |
| CCOC(=O)c1csc(C(=O)[C@H](CCCNC(=N)N)NC(=O)[C@@H]2CCCN2C(=O)[C@@H](Cc2ccccc2)NC)n1 [Compound 19] | 14 |
| CNC(Cc1ccccc1)C(=O)N1CCCC1C(=O)NC(CCCNC(=N)N)C(=O)c1nccs1 (centres unmarked) [Compound 4] | 16 |

assay: Ex vivo bioavailability assay, drug administered i.v. and p.o.; settings: male rats, p.o. vs i.v., drug in plasma extrapolated from thrombin inhibition
Experimental: Bioavailability was determined by an ex vivo assay which incorporated hydrolysis rates from drug administered both i.v. and p.o. In this assay male rats were prepared as described above with a teflon tube implanted in their femoral artery.
A standard curve was generated by adding of drug or vehicle (100 μL) to whole blood (900 μL) followed by incubating (5 min) and centrifuging to obtain plasma. The percentage of thrombin inhibition was calculated by comparing the V0 of the vehicle to that of the drug treated samples. Datum from several runs were normalized with a statistical package (SAS) to generate a standard curve.
The percentage of thrombin inhibition in the treated animals was calculated by comparing the V0 prior to treatment with the V0 obtained from samples collected after treatment. The percent inhibition was applied to the standard curve (generated above) using the statistical package (SAS) and the quantity of drug in the sample was extrapolated.
Bioavailability (Bioavail.) was calculated from the plots of the extrapolated drug in sample vs. time for both i.v. and p.o. administration using the following equation:
%Bioavail.=(i.v. dose administered/p.o. dose administered)×(area
under p.o. curve/area under curve i.v.)

| SMILES | Bioavail. [%] |
| --- | --- |
| CN[C@H](Cc1ccccc1)C(=O)N1CCC[C@H]1C(=O)N[C@@H](CCCNC(=N)N)C(=O)c1nc2ccccc2s1 [Compound 1, N-METHYL-D-PHENYLALANYL-N-[4-[(AMINOIMINOMETHYL)AMINO]-1S-[(BENXOTHIAZOL-2- YL)CARBONYL]BUTYL]-L-PROLINAMIDE] | 1.2 |
